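Following 48 hours of exposure in 96-well plates, responses at five concentrations were used to interpolate endpoints linearly. TGI: total growth inhibition.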
Columns and labels:
Test in all cases: DTP human tumour cell line panel, 48 h
[1] = test system: KM12 colon
[2] = test system: EKVX NSCLC
[3] = test system: SK-MEL-2 melanoma
[4] = test system: TK-10 renal
[5] = test system: RXF 393 renal
[6] = test system: MCF7 breast
[7] = test system: CCRF-CEM leukemia
[8] = test system: SW-620 colon
[9] = test system: NCI-H23 lung
[10] = test system: M14 melanoma
[11] = test system: SK-MEL-5 melanoma
[12] = test system: MDA-MB-231 breast
[13] = test system: ACHN renal
[14] = test system: SR leukemia
[15] = test system: NCI-H522 lung
[16] = test system: OVCAR-8 ovarian
[17] = test system: DU-145 prostate
[18] = test system: LOX IMVI melanoma
[19] = test system: UO-31 renal
[20] = test system: U251 CNS
[21] = test system: PC-3 prostate
[22] = test system: OVCAR-4 ovarian
[23] = test system: IGROV1 ovarian
[24] = test system: MDA-N
[25] = test system: HL-60(TB) leukemia
[26] = test system: K-562 leukemia
[27] = test system: SF-295 CNS
[28] = test system: CAKI-1 renal
[29] = test system: NCI-H460 lung
[30] = test system: HOP-62 NSCLC
[31] = test system: SF-539 CNS
[32] = test system: NCI/ADR-RES ovarian
[33] = test system: HCC-2998 colon
[34] = test system: MOLT-4 leukemia
[35] = test system: SK-OV-3 ovarian
[36] = test system: 786-0 renal
[37] = test system: SK-MEL-28 melanoma
[38] = test system: T-47D breast
[39] = test system: UACC-257 melanoma
[40] = test system: A498 renal
[41] = test system: OVCAR-5 ovarian
[42] = test system: RPMI-8226 leukemia
[43] = test system: SF-268 CNS
[44] = test system: HT29 colon
[45] = test system: HS 578T breast
[46] = test system: HCT-15 colon
[47] = test system: OVCAR-3 ovarian
[48] = test system: MDA-MB-435
[49] = test system: NCI-H226 lung
[50] = test system: HCT-116 colon
[51] = test system: SNB-75 CNS
[52] = test system: BT-549 breast
[53] = test system: SNB-19 CNS
[54] = test system: A549 NSCLC
[55] = test system: MALME-3M melanoma
[56] = test system: COLO 205 colon
[57] = test system: SN12C renal
[58] = test system: UACC-62 melanoma

Cc1cc(S(=O)(=O)/N=C(\[N-]S(=O)(=O)c2cc(Cl)sc2Cl)[n+]2ccc(N(C)C)cc2)c(S)cc1Cl
TGI [1]: > 100 µM | TGI [2]: > 100 µM | TGI [3]: > 100 µM | TGI [4]: > 100 µM | TGI [5]: > 100 µM | TGI [6]: > 100 µM | TGI [7]: > 100 µM | TGI [8]: > 100 µM | TGI [9]: > 100 µM | TGI [10]: 95.8 µM | TGI [11]: > 100 µM | TGI [12]: > 100 µM | TGI [13]: > 100 µM | TGI [14]: 98.2 µM | TGI [15]: 86.1 µM | TGI [16]: > 100 µM | TGI [17]: > 100 µM | TGI [18]: > 100 µM | TGI [19]: 56 µM | TGI [20]: > 100 µM | TGI [21]: > 100 µM | TGI [22]: > 100 µM | TGI [23]: > 100 µM | TGI [24]: > 100 µM | TGI [25]: > 100 µM | TGI [26]: > 100 µM | TGI [27]: > 100 µM | TGI [28]: > 100 µM | TGI [29]: > 100 µM | TGI [30]: > 100 µM | TGI [31]: > 100 µM | TGI [32]: > 100 µM | TGI [33]: > 100 µM | TGI [34]: > 100 µM | TGI [35]: > 100 µM | TGI [36]: > 100 µM | TGI [37]: > 100 µM | TGI [38]: > 100 µM | TGI [39]: > 100 µM | TGI [40]: 82.5 µM | TGI [41]: > 100 µM | TGI [42]: > 100 µM | TGI [43]: > 100 µM | TGI [44]: > 100 µM | TGI [45]: > 100 µM | TGI [46]: > 100 µM | TGI [47]: > 100 µM | TGI [48]: > 100 µM | TGI [49]: > 100 µM | TGI [50]: 55.5 µM

Cc1cccc(N/C(Sc2ccccc2)=C(/C(Cl)=C(Cl)Cl)[N+](=O)[O-])c1
TGI [1]: 48.6 µM | TGI [2]: 42.7 µM | TGI [3]: > 100 µM | TGI [6]: 91.3 µM | TGI [7]: > 100 µM | TGI [8]: 31.1 µM | TGI [9]: 37 µM | TGI [10]: 36.7 µM | TGI [51]: 68 µM | TGI [12]: 53.9 µM | TGI [13]: 74.9 µM | TGI [16]: 29.6 µM | TGI [17]: 62.2 µM | TGI [19]: 29.9 µM | TGI [20]: 31.9 µM | TGI [21]: > 100 µM | TGI [22]: 38.6 µM | TGI [52]: 41.8 µM | TGI [24]: 45.8 µM | TGI [26]: 57.8 µM | TGI [53]: > 100 µM | TGI [27]: 36.2 µM | TGI [28]: 37.3 µM | TGI [54]: 47.4 µM | TGI [29]: > 100 µM | TGI [30]: 40.1 µM | TGI [31]: 31.3 µM | TGI [32]: 39.1 µM | TGI [33]: > 100 µM | TGI [34]: > 100 µM | TGI [55]: 30.2 µM | TGI [35]: 47.6 µM | TGI [36]: 32.9 µM | TGI [56]: 29 µM | TGI [37]: 32.4 µM | TGI [38]: 42.7 µM | TGI [39]: 47.2 µM | TGI [40]: 40.6 µM | TGI [41]: 40.8 µM | TGI [57]: 35.1 µM | TGI [42]: > 100 µM | TGI [43]: 34.2 µM | TGI [44]: 43.1 µM | TGI [58]: 54.6 µM | TGI [46]: 29.4 µM | TGI [47]: 21.6 µM | TGI [48]: 34 µM | TGI [49]: 35.2 µM | TGI [50]: 28.7 µM
